Data taken from ChEMBL document CHEMBL5385904, “Design, synthesis and biological evaluation of seco-DSP/DCK derivatives reversing P-glycoprotein-mediated paclitaxel resistance in A2780/T cells” (Eur J Med Chem, 2023).
Calls of active or inactive are those of the source. No cut-off for these calls is given here.

Key:
A2780/Taxol [1] = assay: Reversal of multidrug resistance in human A2780/Taxol Cells assessed as reversal fold of paclitaxel IC50 at 10 uM incubated for 48 hrs by MTT assay; type: functional
A2780/Taxol [2] = assay: Reversal of multi-drug resistance in human A2780/Taxol cells incubated for 48 hrs by MTT assay; type: functional, cell-based
[3] = Stability in human microsomal fraction preincubated for 10 mins followed by NADPH addition and measured upto 60 mins by LC-MS/MS analysis; type: ADME, microsomes, Microsome; details: time < 70 min, read-out: Stability
A2780/Taxol [4] = assay: Cytotoxicity against human A2780/Taxol cells assessed survival rate at 10 uM incubated for 48 hrs by MTT assay; type: functional
hERG (KCNH2) [5] = target: T1, hERG (KCNH2) (Homo sapiens, UniProt Q12809); assay: Inhibition of hERG at 40 uM by patch clamp assay relative to control; type: toxicity
T1 sequence (Q12809 whole entry): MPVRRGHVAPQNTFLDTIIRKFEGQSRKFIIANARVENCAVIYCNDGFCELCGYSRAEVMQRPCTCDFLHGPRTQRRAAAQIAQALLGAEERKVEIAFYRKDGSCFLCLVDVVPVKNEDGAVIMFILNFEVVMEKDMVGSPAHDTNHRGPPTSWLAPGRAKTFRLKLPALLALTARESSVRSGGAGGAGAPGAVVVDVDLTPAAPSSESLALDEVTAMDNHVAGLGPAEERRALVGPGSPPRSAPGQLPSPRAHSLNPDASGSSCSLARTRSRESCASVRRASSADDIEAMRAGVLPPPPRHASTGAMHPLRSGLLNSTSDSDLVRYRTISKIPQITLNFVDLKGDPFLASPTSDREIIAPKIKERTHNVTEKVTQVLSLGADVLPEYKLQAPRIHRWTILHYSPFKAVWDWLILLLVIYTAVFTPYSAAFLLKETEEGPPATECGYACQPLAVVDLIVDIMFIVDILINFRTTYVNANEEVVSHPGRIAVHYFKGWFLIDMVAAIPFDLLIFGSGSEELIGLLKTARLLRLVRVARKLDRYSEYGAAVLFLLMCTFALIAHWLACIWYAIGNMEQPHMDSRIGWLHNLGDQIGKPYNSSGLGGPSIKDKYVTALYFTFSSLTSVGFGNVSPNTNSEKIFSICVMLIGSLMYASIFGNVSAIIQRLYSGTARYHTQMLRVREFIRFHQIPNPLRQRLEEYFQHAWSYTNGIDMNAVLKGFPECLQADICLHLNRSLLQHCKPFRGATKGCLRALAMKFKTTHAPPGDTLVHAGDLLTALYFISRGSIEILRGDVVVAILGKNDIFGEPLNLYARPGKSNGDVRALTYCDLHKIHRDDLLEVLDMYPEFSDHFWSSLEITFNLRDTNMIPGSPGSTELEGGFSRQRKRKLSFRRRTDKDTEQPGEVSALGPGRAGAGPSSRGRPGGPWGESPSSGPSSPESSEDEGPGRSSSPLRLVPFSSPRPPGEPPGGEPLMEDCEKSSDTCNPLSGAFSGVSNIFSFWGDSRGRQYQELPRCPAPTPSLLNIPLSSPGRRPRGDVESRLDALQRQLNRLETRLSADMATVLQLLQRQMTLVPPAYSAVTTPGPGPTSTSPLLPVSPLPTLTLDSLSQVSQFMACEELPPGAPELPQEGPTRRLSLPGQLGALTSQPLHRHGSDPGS

[6] = target: Voltage-gated inwardly rectifying potassium channel KCNH2 (Homo sapiens, UniProt Q12809); assay: Inhibition of hERG by patch clamp assay; type: toxicity
Chain of Voltage-gated inwardly rectifying potassium channel KCNH2 (Q12809 whole entry): as above

A2780 [7] = assay: Cytotoxicity against human A2780 cells assessed as reduction in cell viability at 10 to 20 uM incubated for 48 hrs by MTT assay; type: functional, cell-based; details: dose 10-20 µM
[8] = target: T2, ATP-dependent translocase ABCB1 (Homo sapiens, UniProt P08183); assay: Inhibition of P-gp in human A2780/Taxol cells assessed as paclitaxel accumulation in cells by measuring increase in fluorescence intensity at 5 to 20 uM incubated for 8 hrs; type: cell-based; details: dose 5-20 µM
T2 sequence (P08183 whole entry): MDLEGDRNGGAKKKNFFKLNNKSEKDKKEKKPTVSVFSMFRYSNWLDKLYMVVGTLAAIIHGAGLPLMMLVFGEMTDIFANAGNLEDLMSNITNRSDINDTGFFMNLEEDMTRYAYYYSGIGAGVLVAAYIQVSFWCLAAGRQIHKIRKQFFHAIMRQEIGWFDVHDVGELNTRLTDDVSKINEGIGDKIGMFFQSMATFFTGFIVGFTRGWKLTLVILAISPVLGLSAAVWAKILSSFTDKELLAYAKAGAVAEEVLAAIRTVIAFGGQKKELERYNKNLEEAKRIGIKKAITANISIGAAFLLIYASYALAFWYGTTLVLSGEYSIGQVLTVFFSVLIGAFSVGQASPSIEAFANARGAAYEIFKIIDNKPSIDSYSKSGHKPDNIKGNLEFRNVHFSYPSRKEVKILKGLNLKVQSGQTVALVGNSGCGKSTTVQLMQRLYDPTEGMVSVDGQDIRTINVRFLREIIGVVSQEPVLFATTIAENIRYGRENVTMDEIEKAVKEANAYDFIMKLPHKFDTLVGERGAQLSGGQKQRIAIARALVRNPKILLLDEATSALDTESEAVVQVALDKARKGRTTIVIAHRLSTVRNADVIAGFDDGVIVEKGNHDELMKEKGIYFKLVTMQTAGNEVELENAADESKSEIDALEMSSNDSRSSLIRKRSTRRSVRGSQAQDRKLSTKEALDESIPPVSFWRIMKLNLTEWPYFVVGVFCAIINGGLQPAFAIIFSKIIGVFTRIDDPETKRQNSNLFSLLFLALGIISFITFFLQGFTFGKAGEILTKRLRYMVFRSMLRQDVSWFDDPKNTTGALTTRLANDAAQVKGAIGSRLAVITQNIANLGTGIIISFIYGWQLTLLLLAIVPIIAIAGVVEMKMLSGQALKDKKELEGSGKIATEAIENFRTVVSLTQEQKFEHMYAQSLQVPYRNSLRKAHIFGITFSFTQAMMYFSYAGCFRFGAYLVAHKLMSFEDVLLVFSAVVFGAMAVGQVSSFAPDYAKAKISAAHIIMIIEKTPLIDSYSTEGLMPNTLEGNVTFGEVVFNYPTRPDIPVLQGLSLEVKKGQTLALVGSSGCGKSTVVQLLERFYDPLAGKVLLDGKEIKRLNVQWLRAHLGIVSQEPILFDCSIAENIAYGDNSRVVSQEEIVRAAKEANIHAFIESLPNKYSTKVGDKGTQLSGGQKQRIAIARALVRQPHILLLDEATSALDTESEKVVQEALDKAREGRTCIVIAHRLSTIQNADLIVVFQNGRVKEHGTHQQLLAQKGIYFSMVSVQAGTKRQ

A2780/Taxol [9] = assay: Reversal of multi-drug resistance in human A2780/Taxol cells at 10 to 20 uM incubated for 48 hrs by MTT assay; type: functional, cell-based; details: dose 10-20 µM
A2780 [10] = assay: Reversal of drug-sensitive human A2780 cells at 2.5 to 20 uM incubated for 48 hrs in presence of paclitaxel by MTT assay; type: functional, cell-based; details: dose 2.5-20 µM
hERG (KCNH2) [11] = target: T1, hERG (KCNH2); assay: Inhibition of hERG at 3 uM by patch clamp assay relative to control; type: toxicity
A2780/Taxol [12] = assay: Effect on p-gp expression in human A2780/Taxol cells at 5 to 20 uM by Western blot analysis; type: functional, cell-based; details: dose 5-20 µM
[13] = Stability in mouse plasma assessed as parent compound remaining measured at 30 mins by LC-MS/MS analysis; type: ADME, cell-free; details: read-out: Stability
[14] = target: T2, ATP-dependent translocase ABCB1; assay: Inhibition of P-gp in human A2780/Taxol cells assessed as paclitaxel accumulation in cells by measuring increase in fluorescence intensity incubated for 8 hrs; type: cell-based; details: at 2.5 to 20 µM, dose 2.5-20 µM
[15] = target: T2, ATP-dependent translocase ABCB1; assay: Inhibition of P-gp in human A2780/Taxol cells assessed as paclitaxel accumulation in cells by measuring increase in fluorescence intensity at 2.5 to 10 uM incubated for 8 hrs; type: cell-based; details: dose 2.5-10 µM
[16] = target: T2, ATP-dependent translocase ABCB1; assay: Inhibition of P-gp-mediated rhodamine-123 efflux in human A2780/Taxol cells assessed as increase in fluorescence intensity at 10 uM measured upto 60 mins by flow cytometric analysis; type: cell-based; details: 1 h
[17] = Stability in water assessed as parent compound remaining measured immediately by LC-MS/MS analysis; type: physicochemical; details: read-out: Stability
[18] = target: T2, ATP-dependent translocase ABCB1; assay: Inhibition of P-gp in human A2780/Taxol cells assessed as paclitaxel accumulation in cells by measuring increase in fluorescence intensity at 2.5 to 20 uM incubated for 8 hrs; type: cell-based; details: dose 2.5-20 µM
[19] = Stability in mouse plasma assessed as parent compound remaining measured immediately by LC-MS/MS analysis; type: ADME, cell-free; details: read-out: Stability
[20] = Stability in water assessed as parent compound remaining measured at 30 mins by LC-MS/MS analysis; type: physicochemical; details: read-out: Stability
A2780/Taxol [21] = assay: Reversal of multi-drug resistance in human A2780/Taxol cells at 5 to 20 uM incubated for 48 hrs by MTT assay; type: functional, cell-based; details: dose 5-20 µM
[22] = target: T2, ATP-dependent translocase ABCB1; assay: Inhibition of P-gp-mediated rhodamine-123 efflux in human A2780/Taxol cells assessed as increase in fluorescence intensity at 10 uM by flow cytometric analysis; type: cell-based; details: 1 h, TDE = time-dependent effect, time < 60 min

Row | Compound | IC50 (A2780/Taxol [2]) [nM] | fold change (FC) (A2780/Taxol [1]) | Cell survival rate (A2780/Taxol [4]) [%] | also measured
1 | Cc1c(Cc2ccc(C#N)cc2)c(=O)oc2c(COC(=O)/C=C/c3ccccc3)c(OC(C)C)ccc12 | 210 | 21 | 91 | 
2 | Cc1c(Cc2ccccc2)c(=O)oc2c(COC(=O)c3ccc(F)cc3)c(OC(C)C)ccc12 | 86 | 51 | 82 | 
3 | COc1cc(CC(=O)NCc2c(OC(C)C)ccc3c(C)cc(=O)oc23)cc(OC)c1OC | 1580 | 2.8 | 90 | 
4 | COc1cccc(Cc2c(C)c3ccc(OC(C)C)c(COC(=O)Cc4cc(OC)c(OC)c(OC)c4)c3oc2=O)c1 | 73 | 60 | 93 | 
5 | Cc1c(Cc2ccccc2)c(=O)oc2c(COC(=O)/C=C/c3ccccc3)c(OC(C)C)ccc12 | 276 | 16 | 95 | 
6 | COc1ccc(/C=C/C(=O)OCc2c(OC(C)C)ccc3c(C)c(Cc4ccc(F)cc4)c(=O)oc23)cc1 | 491 | 9 | 89 | 
7 | COc1ccc(Cc2c(C)c3ccc(OC(C)C)c(COC(=O)Cc4cc(OC)c(OC)c(OC)c4)c3oc2=O)cc1 | 94 | 47 | 94 | 
8 | CCc1cc(=O)c2ccc(OC(C)C)c(CNC(=O)/C=C/c3ccccc3)c2o1 | 192 | 23 | 74 | 
9 | COc1cc(CC(=O)OCc2c(OC(C)C)ccc3c(C)c(Cc4ccccc4F)c(=O)oc23)cc(OC)c1OC | 73 | 60 | 98 | 
10 | Cc1cc(=O)oc2c(CNC(=O)/C=C/c3ccccc3)c(OC(C)C)ccc12 | 294 | 15 | 87 | 
11 | CCOc1ccc2c(C)c(Cc3ccccc3)c(=O)oc2c1COC(=O)/C=C/c1ccc(OC)cc1 | 276 | 16 | 74 | 
12 | Cc1c(Cc2ccc(C(F)(F)F)cc2)c(=O)oc2c(COC(=O)/C=C/c3ccccc3)c(OC(C)C)ccc12 | 401 | 11 | 99 | 
13 | COc1cc2c(cc1OC)CN(CCc1ccc(NC(=O)c3cc(OC)c(OC)cc3NC(=O)c3cnc4ccccc4c3)cc1)CC2 [TARIQUIDAR] |  |  |  | Activity (A2780 [7]): Active; inhibition (INH) [8]: Active; Activity (A2780/Taxol [9]): Active; Activity (A2780 [10]): Active
14 | COc1cc(C(=O)OCc2c(OC(C)C)ccc3c(C)c(Cc4ccccc4)c(=O)oc23)cc(OC)c1OC | 85 | 52 | 91 | 
15 | COc1cc(CC(=O)OCc2c(OC(C)C)ccc3c(C)c(Cc4cccc(F)c4)c(=O)oc23)cc(OC)c1OC | 86 | 51 | 94 | 
16 | COc1cc(N)c(Cl)cc1C(=O)NC1CCN(CCCOc2ccc(F)cc2)CC1OC (centres undefined) [CISAPRIDE] |  |  |  | inhibition at 3 µM (hERG (KCNH2) [11]): 98%
17 | CCOc1ccc2c(C)c(Cc3ccc(OC)cc3)c(=O)oc2c1COC(=O)/C=C/c1ccc(OC)cc1 | 491 | 9 | 90 | 
18 | Cc1cc(=O)oc2c(C(=O)Nc3ccc(OC(F)(F)F)cc3)c(OC(C)C)ccc12 | 315 | 14 | 60 | 
19 | Cc1cc(=O)oc2c(C(=O)Nc3ccccc3)c(OC(C)C)ccc12 | 2760 | 1.6 | 92 | 
20 | COc1ccc(CCN(C)CCCC(C#N)(c2ccc(OC)c(OC)c2)C(C)C)cc1OC (centres undefined) [VERAPAMIL] |  |  | 81 | Activity (A2780 [7]): Active; Activity (A2780/Taxol [9]): Active; Activity (A2780 [10]): Active
21 | CCc1c(C)c2ccc(OC(C)C)c(COC(=O)Cc3cc(OC)c(OC)c(OC)c3)c2oc1=O | 69 | 64 | 93 | 

Second part, led by results:

Row | IC50 (A2780/Taxol [2]) [nM] | Compound | fold change (FC) (A2780/Taxol [1]) | Cell survival rate (A2780/Taxol [4]) [%] | also measured
22 | 31 | CCc1cc(=O)c2ccc(OC(C)C)c(CNC(=O)/C=C/c3ccc(OC)cc3)c2o1 | 142 | 79 | remaining at 1 h [3]: 29.4%
23 | 29 | CCOc1ccc2c(C)cc(=O)oc2c1CNC(=O)/C=C/c1ccc(OC)cc1 | 150 | 96 | inhibition at 40 µM (hERG (KCNH2) [5]): 32.5%; remaining at 1 h [3]: 44.3%; IC50 [6]: > 40000 nM
24 | 43 | COc1cc(CC(=O)OCc2c(OC(C)C)ccc3c(C)c(-c4ccccc4)c(=O)oc23)cc(OC)c1OC | 101 | 97 | 
25 | 53 | COc1cc(CCC(=O)OCc2c(OC(C)C)ccc3c(C)c(Cc4ccccc4)c(=O)oc23)cc(OC)c1OC | 82 | 90 | 
26 | 69 | COc1ccccc1Cc1c(C)c2ccc(OC(C)C)c(COC(=O)Cc3cc(OC)c(OC)c(OC)c3)c2oc1=O | 64 | 92 | 
27 | 62 | Cc1c(Cc2ccccc2)c(=O)oc2c(COC(=O)c3ccccc3)c(OC(C)C)ccc12 | 71 | 81 | 
28 | 29 | CCOc1ccc2c(=O)cc(CC)oc2c1CNC(=O)/C=C/c1ccc(OC)cc1 | 153 | 91 | remaining at 1 h [3]: 11.8%
29 | 21 | COc1cc(CC(=O)OCc2c(OC(C)C)ccc3c(C)c(Cc4ccc(F)cc4)c(=O)oc23)cc(OC)c1OC | 206 | 92 | 
30 | 36 | COc1cc(CC(=O)OCc2c(OC(C)C)ccc3c(C)c(C(C)C)c(=O)oc23)cc(OC)c1OC | 122 | 98 | 
31 | 10 | COc1cc(CC(=O)OCc2c(OC(C)C)ccc3c(C)c(Cc4ccccc4)c(=O)oc23)cc(OC)c1OC | 425 | 81 | Activity (A2780/Taxol [12]): Active; remaining at 0.5 h [13]: 0.72%; Activity (A2780 [7]): Active; inhibition (INH) [8]: Active; inhibition (INH) [14]: Dose-Dependent Effect; inhibition at 40 µM (hERG (KCNH2) [5]): 19%; inhibition (INH) [15]: Active; inhibition (INH) [16]: Active; Activity (A2780/Taxol [2]; dose 2.5-20 µM): Dose-Dependent Effect; remaining at 0 min [17]: 100%; remaining at 1 h [3]: 0.877%; inhibition (INH) [18]: Active; remaining at 0 min [19]: 100%; remaining at 0.5 h [20]: 89.1%; Activity (A2780 [10]): Active; Activity (A2780/Taxol [21]): Active; inhibition (INH) [22]: Tde; IC50 [6]: > 40000 nM
32 | 55 | COc1cc(CC(=O)OCc2c(OC(C)C)ccc3c(C)c(C)c(=O)oc23)cc(OC)c1OC | 80 | 94 | 
